Data reported in ChEMBL document CHEMBL5500402, “Potent, Selective Agonists for the Cannabinoid-like Orphan G Protein-Coupled Receptor GPR18: A Promising Drug Target for Cancer and Immunity” (J Med Chem, 2024).

Assays:
[1] = biological target: T1, N-arachidonyl glycine receptor (Homo sapiens, UniProt Q14330); assay: Agonist activity at human GPR18 expressed in CHO cells assessed as activation by measuring beta-arrestin2 recruitment incubated for 90 mins by luminescence based assay; type: functional, cell-based
T1 sequence (Q14330 whole entry): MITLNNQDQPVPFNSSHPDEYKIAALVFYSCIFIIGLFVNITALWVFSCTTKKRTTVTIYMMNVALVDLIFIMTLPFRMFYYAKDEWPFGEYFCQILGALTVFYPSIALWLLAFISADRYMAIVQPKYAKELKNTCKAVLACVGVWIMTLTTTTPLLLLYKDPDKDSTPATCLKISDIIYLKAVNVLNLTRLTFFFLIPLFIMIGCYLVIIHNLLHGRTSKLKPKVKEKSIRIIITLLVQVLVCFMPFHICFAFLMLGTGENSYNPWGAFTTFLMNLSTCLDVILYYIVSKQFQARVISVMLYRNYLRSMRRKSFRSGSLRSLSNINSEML

[2] = biological target: T2, N-arachidonyl glycine receptor (Mus musculus, UniProt Q8K1Z6)
T2 sequence (Q8K1Z6 whole entry): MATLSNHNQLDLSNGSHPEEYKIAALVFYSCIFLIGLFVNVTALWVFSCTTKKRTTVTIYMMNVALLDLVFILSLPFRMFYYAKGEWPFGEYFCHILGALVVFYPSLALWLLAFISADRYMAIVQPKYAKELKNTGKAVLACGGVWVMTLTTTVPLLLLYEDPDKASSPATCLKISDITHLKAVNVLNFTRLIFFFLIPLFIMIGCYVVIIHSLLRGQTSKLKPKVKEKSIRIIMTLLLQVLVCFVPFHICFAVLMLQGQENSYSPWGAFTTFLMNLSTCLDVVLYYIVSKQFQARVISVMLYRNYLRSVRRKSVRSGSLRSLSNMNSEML
Description: Agonist activity at mouse GPR18 expressed in CHO cells assessed as activation by measuring beta-arrestin2 recruitment incubated for 90 mins by luminescence based assay

[3] = biological target: T1, N-arachidonyl glycine receptor; assay: Antagonist activity at human GPR18 receptor expressed in CHO cells assessed as inhibition of THC-induced activation by measuring beta-arrestin2 recruitment
[4] = biological target: T1, N-arachidonyl glycine receptor
[5] = biological target: G-protein coupled receptor 183 (Homo sapiens, UniProt P32249); assay: Agonist activity at human GPR183 expressed in PathHunter CHO-K1 cells assessed as activation by measuring beta-arrestin2 recruitment
[6] = biological target: Cannabinoid receptor 1 (Homo sapiens, UniProt P21554); assay: Displacement of [3H]-CP55940 from human CB1 receptor expressed in CHO cells assessed as inhibition constant by radioligand competition binding assay; type: cell-based
[7] = biological target: Cannabinoid receptor 2 (Homo sapiens, UniProt P34972); assay: Displacement of [3H]-CP55940 from human CB2 receptor expressed in CHO cells assessed as inhibition constant by radioligand competition binding assay; type: cell-based
[8] = biological target: T3, G-protein coupled receptor 55 (Homo sapiens, UniProt Q9Y2T6); assay: Agonist activity at human GPR55 expressed in CHO-K1 cells by beta-arrestin2 recruitment assay
[9] = biological target: T3, G-protein coupled receptor 55; assay: Antagonist activity at human GPR55 expressed in CHO-K1 cells assessed as inhibition of beta-arrestin2 recruitment
[10] = biological target: T1, N-arachidonyl glycine receptor; assay: Agonist activity at human GPR18-eYFP and Renilla luc expressed in CHO cells assessed as beta-arrestin2 recruitment by BRET/beta-arrestin2 enzyme complementation assay

Chain of Cannabinoid receptor 2 (P34972 whole entry): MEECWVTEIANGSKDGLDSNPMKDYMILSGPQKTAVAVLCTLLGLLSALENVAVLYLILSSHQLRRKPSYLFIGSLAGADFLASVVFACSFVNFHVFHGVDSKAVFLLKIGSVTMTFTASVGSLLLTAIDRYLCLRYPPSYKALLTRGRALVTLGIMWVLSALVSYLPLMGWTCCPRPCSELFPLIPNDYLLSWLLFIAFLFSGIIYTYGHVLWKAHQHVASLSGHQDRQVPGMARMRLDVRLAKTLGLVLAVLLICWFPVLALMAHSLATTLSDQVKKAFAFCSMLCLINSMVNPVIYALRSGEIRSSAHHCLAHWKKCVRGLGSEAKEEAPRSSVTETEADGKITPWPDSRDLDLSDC
Chain of Cannabinoid receptor 1 (P21554 whole entry): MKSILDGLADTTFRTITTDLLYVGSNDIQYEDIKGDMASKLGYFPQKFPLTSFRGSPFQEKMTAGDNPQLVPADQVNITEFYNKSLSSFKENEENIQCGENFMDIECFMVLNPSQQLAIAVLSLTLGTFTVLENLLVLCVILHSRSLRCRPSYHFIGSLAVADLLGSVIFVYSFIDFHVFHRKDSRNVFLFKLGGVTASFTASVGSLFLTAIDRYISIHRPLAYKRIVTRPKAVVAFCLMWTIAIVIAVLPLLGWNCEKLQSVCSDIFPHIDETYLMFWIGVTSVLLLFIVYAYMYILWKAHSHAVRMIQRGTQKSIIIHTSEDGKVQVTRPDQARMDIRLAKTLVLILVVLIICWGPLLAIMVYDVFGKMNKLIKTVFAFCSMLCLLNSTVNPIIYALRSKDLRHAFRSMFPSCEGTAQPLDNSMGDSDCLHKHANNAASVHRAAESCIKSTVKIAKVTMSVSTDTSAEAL
T3 sequence (Q9Y2T6 whole entry): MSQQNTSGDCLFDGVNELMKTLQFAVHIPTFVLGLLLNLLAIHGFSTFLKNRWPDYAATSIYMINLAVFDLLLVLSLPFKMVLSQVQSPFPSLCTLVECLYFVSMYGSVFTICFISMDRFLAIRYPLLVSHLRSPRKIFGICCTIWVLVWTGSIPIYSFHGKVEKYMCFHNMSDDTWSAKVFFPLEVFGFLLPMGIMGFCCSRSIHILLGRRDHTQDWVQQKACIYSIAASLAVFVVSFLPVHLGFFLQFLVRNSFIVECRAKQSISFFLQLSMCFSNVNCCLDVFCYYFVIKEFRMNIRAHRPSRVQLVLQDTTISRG
Chain of G-protein coupled receptor 183 (P32249 whole entry): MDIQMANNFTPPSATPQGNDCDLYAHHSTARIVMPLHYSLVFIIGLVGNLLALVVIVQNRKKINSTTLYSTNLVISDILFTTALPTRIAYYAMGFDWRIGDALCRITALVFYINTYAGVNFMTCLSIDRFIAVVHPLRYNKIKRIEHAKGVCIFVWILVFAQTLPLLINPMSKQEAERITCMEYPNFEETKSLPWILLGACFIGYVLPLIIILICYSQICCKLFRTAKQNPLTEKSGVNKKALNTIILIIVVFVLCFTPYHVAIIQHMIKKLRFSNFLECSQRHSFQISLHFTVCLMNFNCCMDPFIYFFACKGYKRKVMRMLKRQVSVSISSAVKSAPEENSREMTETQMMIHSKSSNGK

| Compound | EC50 [1] [nM] | EC50 [2] [nM] | further results |
| --- | --- | --- | --- |
| Cn1c(=O)c2c(nc(NCCc3c[nH]c4ccccc34)n2Cc2ccccc2F)n(C)c1=O | 137 | 128 |  |
| Cn1c(=O)c2c(nc(NCCc3c[nH]c4ccccc34)n2CCCc2ccccc2)n(C)c1=O |  | 230 |  |
| Cn1c(=O)c2c(nc(NCCc3c[nH]c4ccccc34)n2Cc2ccc(Cl)cc2)n(CCF)c1=O | 351 | 398 |  |
| CCCNC(=O)c1ccc(Cn2c(NCCc3c[nH]c4ccccc34)nc3c2c(=O)n(C)c(=O)n3C)cc1 | 1410 | 1270 |  |
| O=C1/C(=C/c2cccc(OCCCCCCOc3ccc(Cl)cc3)c2)N=C2SCCCN12 |  |  | IC50 [3]: 487 nM; IC50 [4]: 9.91 µM |
| Cn1c(=O)c2c(nc(NCCc3c[nH]c4ccccc34)n2CCOc2ccccc2)n(C)c1=O |  | 334 |  |
| Cn1c(=O)c2c(nc(NCCc3c[nH]c4ccccc34)n2Cc2ccc(F)cc2)n(C)c1=O | 54 | 124 |  |
| Cn1c(=O)c2c(nc3n2CCCCN3CCc2c[nH]c3ccccc23)n(C)c1=O |  | 582 |  |
| Cn1c(=O)c2c(nc(NCCc3c[nH]c4ccccc34)n2Cc2ccc(F)c(F)c2)n(C)c1=O | 142 | 161 |  |
| Cn1c(=O)c2c(nc(NCCc3c[nH]c4ccccc34)n2C)n(C)c1=O | 902 | 2970 |  |
| Cn1c(=O)c2c(nc(NCCc3c[nH]c4ccccc34)n2Cc2ccc(Cl)cc2)n(Cc2ccccc2)c1=O | > 10000 | 393 |  |
| C#CCn1c(NCCc2c[nH]c3ccccc23)nc2c1c(=O)n(C)c(=O)n2C | 247 | 318 |  |
| Cn1c(=O)[nH]c2nc(NCCc3c[nH]c4ccccc34)n(Cc3ccc(Cl)cc3)c2c1=O | 206 | 290 |  |
| CCCCCc1cc(O)c2c(c1)OC(C)(C)[C@@H]1CCC(C)=C[C@@H]21 [DRONABINOL] | 3370 | > 10000 | EC50 [5]: 38 nM |
| Cn1c(=O)c2c(nc(NCCc3c[nH]c4ccccc34)n2Cc2ccc(Cl)cc2)n(CC#N)c1=O | 1220 | 981 |  |
| CC(=O)Nc1ccc(Cn2c(NCCc3c[nH]c4ccccc34)nc3c2c(=O)n(C)c(=O)n3C)cc1 | 218 | 281 |  |
| CC(C)c1ccc(Cn2c(NCCc3c[nH]c4ccccc34)nc3c2c(=O)n(C)c(=O)n3C)cc1 |  | 150 | Ki ([6]; read-out: Ki): 6.28 µM; Ki [7]: 150 nM |
| Cn1c(=O)c2c(nc(NCCc3c[nH]c4ccccc34)n2CCC2CCCCC2)n(C)c1=O |  | 127 |  |
| CCn1c(NCCc2c[nH]c3ccccc23)nc2c1c(=O)n(C)c(=O)n2C | 190 | 379 |  |
| COC(=O)c1ccc(Cn2c(NCCc3c[nH]c4ccccc34)nc3c2c(=O)n(C)c(=O)n3C)cc1 | 469 | 488 |  |

| Compound | EC50 [1] [nM] | EC50 [2] [nM] | further results |
| --- | --- | --- | --- |
| Cn1c(=O)c2c(nc(NCCc3c[nH]c4ccccc34)n2Cc2ccc(Cl)c(F)c2)n(C)c1=O |  | 121 |  |
| C=CCn1c(NCCc2c[nH]c3ccccc23)nc2c1c(=O)n(C)c(=O)n2C | 169 | 379 |  |
| Cn1c(=O)c2c(nc(NCCc3c[nH]c4ccccc34)n2Cc2ccc(Br)cc2)n(C)c1=O |  | 58 |  |
| Cn1c(=O)c2c(nc(NCCc3c[nH]c4ccccc34)n2Cc2ccc([N+](=O)[O-])cc2)n(C)c1=O |  | 280 |  |
| COc1cccc(Cn2c(NCCc3c[nH]c4ccccc34)nc3c2c(=O)n(C)c(=O)n3C)c1 | 166 | 245 |  |
| Cn1c(=O)c2c(nc(NCCc3c[nH]c4ccccc34)n2CCOc2ccc(Cl)cc2)n(C)c1=O |  | 444 |  |
| Cn1c(=O)c2c(nc(NCCc3c[nH]c4ccccc34)n2Cc2ccc(C(N)=O)cc2)n(C)c1=O | 3600 | 4000 |  |
| Cn1c(=O)c2c(nc(NCCc3c[nH]c4ccccc34)n2Cc2cccc(Br)c2)n(C)c1=O | 10 | 180 | Ki [7]: 344 nM |
| Cn1c(=O)c2c(nc(NCCc3c[nH]c4ccccc34)n2Cc2ccccc2)n(C)c1=O | 149 | 194 |  |
| CNS(=O)(=O)c1ccc(Cn2c(NCCc3c[nH]c4ccccc34)nc3c2c(=O)n(C)c(=O)n3C)cc1 | 3670 | 3630 |  |
| CCCCC/C=C\C/C=C\C/C=C\C/C=C\CCCC(=O)NCC(=O)O [ARACHIDONOYL GLYCINE] | > 10000 | > 10000 |  |
| Cn1c(=O)c2c(nc3n2CCCN3CCc2c[nH]c3ccccc23)n(C)c1=O |  | 1780 |  |
| Cn1c(=O)c2c(nc(NCCc3c[nH]c4ccccc34)n2Cc2ccc(Cl)c(Cl)c2)n(C)c1=O | 74 | 90 |  |
| Cn1c(=O)c2c(nc(NCCc3c[nH]c4ccccc34)n2Cc2cccc(Cl)c2)n(C)c1=O | 71 | 220 | Ki [7]: 896 nM |
| CCCCn1c(NCCc2c[nH]c3ccccc23)nc2c1c(=O)n(C)c(=O)n2C | 151 | 207 |  |
| COc1ccc(Cn2c(NCCc3c[nH]c4ccccc34)nc3c2c(=O)n(C)c(=O)n3C)cc1 | 138 | 171 | Ki ([6]; cho): Not Active |
| Cn1c(=O)c2c(nc(NCCc3c[nH]c4ccccc34)n2Cc2ccc(Cl)cc2)n(CC(F)(F)F)c1=O |  | 711 |  |
| Cn1c(=O)c2c(nc(NCCc3c[nH]c4ccccc34)n2CCc2ccccc2)n(C)c1=O | 442 | 288 |  |
| Cn1c(=O)c2c(nc(NCCc3c[nH]c4ccccc34)n2Cc2ccc(F)c(Cl)c2)n(C)c1=O | 193 | 251 |  |
| CCC#CCn1c(NCCc2c[nH]c3ccccc23)nc2c1c(=O)n(C)c(=O)n2C | 254 | 371 |  |

| Compound | EC50 [1] [nM] | EC50 [2] [nM] | further results |
| --- | --- | --- | --- |
| Cn1c(=O)c2c(nc(NCCc3c[nH]c4ccccc34)n2Cc2cccc(F)c2)n(C)c1=O |  | 301 |  |
| Cc1ccc(Cn2c(NCCc3c[nH]c4ccccc34)nc3c2c(=O)n(C)c(=O)n3C)cc1 | 24 | 46 | Ki ([6]; read-out: Ki): 3.48 µM; Ki [7]: 827 nM |
| Cn1c(=O)c2c(nc(NCCc3c[nH]c4ccccc34)n2Cc2ccc(Cl)cc2)n(CCO)c1=O |  | 1200 |  |
| Cn1c(=O)c2c(nc(NCCc3c[nH]c4ccccc34)n2Cc2c(Cl)cccc2Cl)n(C)c1=O |  | 559 |  |
| Cn1c(=O)c2c(nc(NCCc3c[nH]c4ccccc34)n2CCF)n(C)c1=O | 1390 | 2640 |  |
| CCCn1c(NCCc2c[nH]c3ccccc23)nc2c1c(=O)n(C)c(=O)n2C | 196 | 299 |  |
| Cn1c(=O)c2c(nc(NCCc3c[nH]c4ccccc34)n2Cc2ccc(C(F)(F)F)cc2)n(C)c1=O | 136 | 216 |  |
| C=CCCn1c(NCCc2c[nH]c3ccccc23)nc2c1c(=O)n(C)c(=O)n2C |  | 447 |  |
| Cn1c(=O)c2c(nc(NCCc3c[nH]c4ccccc34)n2Cc2ccc(S(N)(=O)=O)cc2)n(C)c1=O | 6640 | 10900 |  |
| Cn1c(=O)c2c(nc(NCCc3c[nH]c4ccccc34)n2Cc2ccccc2Cl)n(C)c1=O | 60 | 157 | Ki ([6]; read-out: Ki): > 10 µM; Ki [7]: > 10000 nM |
| Cn1c(=O)c2c(nc(NCCc3c[nH]c4ccccc34)n2Cc2ccc(N)cc2)n(C)c1=O |  | 241 |  |
| CCCn1c(=O)n(C)c(=O)c2c1nc(NCCc1c[nH]c3ccccc13)n2Cc1ccc(Cl)cc1 | > 10000 | > 10000 |  |
| CCCNS(=O)(=O)c1ccc(Cn2c(NCCc3c[nH]c4ccccc34)nc3c2c(=O)n(C)c(=O)n3C)cc1 |  | 1300 |  |
| Cn1c(=O)c2c(nc(NCCc3c[nH]c4ccccc34)n2Cc2ccc(Cl)cc2)n(C)c1=O | 19 | 54 | EC50 [8]: > 10 µM; IC50 [9]: > 10 µM; Ki ([6]; read-out: Ki): 1.18 µM; Ki [7]: 481 nM; EC50 [10]: 38 nM |
| Cn1c(=O)c2c(nc(NCCc3c[nH]c4ccccc34)n2Cc2ccc(Cl)cc2Cl)n(C)c1=O | 64 | 244 |  |
| C=C(C)[C@@H]1CCC(C)=C[C@H]1c1c(O)cc(O)cc1CCCCC | > 10000 | > 10000 |  |
| Cn1c(=O)c2c(nc(NCCc3c[nH]c4ccccc34)n2Cc2ccccc2Br)n(C)c1=O | 189 | 156 | Ki [7]: 1690 nM |
| CCn1c(=O)n(C)c(=O)c2c1nc(NCCc1c[nH]c3ccccc13)n2Cc1ccc(Cl)cc1 | 95 | 297 |  |
